Measured values taken from patent US5238936A, “Trisubstituted triazines” (Adir et Compagnie, priority 1991, dated 1993).

How the values were obtained:
line DC-3F/AD [1] = experiment: Flow cytometry: intracellular accumulation of adriamycin by cells of the line DC-3F/AD; format: cell-based, Chinese hamster; details: ADR 50 μM, 5 hours
Description: Also measured was the effect of the compounds on the intracellular concentration of the cytotoxic agent. In effect, the known compounds for reversing MDR act by increasing the intracellular concentration of cytotoxic agent. This effect is the consequence of inhibiting the action of gP 170 which is responsible for the efflux of the drug.
By measuring that fluorescence, it is thus possible to obtain a relative measurement of the intracellular concentration of ADR.
The cells 500×10^3 per ml were exposed simultaneously to ADR at a fixed concentration (50 μM) and to the tested compounds at various concentrations. After 5 hours' incubation, the intracellular accumulation of ADR was evaluated by FCM. […] The analysis of each of the samples was carried out on a total of 10,000 cells at a rate of 1,000 cells per second.
The results were presented in the form of linear histograms of the intracellular ADR fluorescence.
Expression of the results: for each of the histograms the mean fluorescence per channel (MEAN) was determined by the information system of the apparatus. For all experiments:
a negative control (cells without ADR) fixed the autofluorescence threshold.
a positive control (cells with ADR) determined the MEAN value=MN1.
the "test" tubes (cells with ADR and with compound) were used to determine, for each of the compounds and at each of the concentrations, the MEAN values=MN2.
The results are expressed in the form of variations from the mean fluorescence obtained for each of the "test" tubes (MN2) in relation to the mean fluorescence obtained with the positive control (MNl): VAR-MEAN=MN2-MN1. The parameter expressed is thus the increase in ADR fluorescence in the presence of the tested compounds.

line DC-3F/AD [2] = experiment: Cytotoxicity (Microculture Tetrazolium Assay): reversal of resistance to actinomycin D, line DC-3F/AD; format: cell-based, Chinese hamster; details: 4 days
Description: The pharmacological study of the compounds of the present invention consisted first of all in an evaluation in vitro carried out on resistant cells. The parameter measured is the cytotoxicity of the antitumour drug, quantified in the absence and in the presence of the reversing compound.
The cells are distributed on microplates and exposed to the cytotoxic compounds (actinomycin D for line DC-3F/AD and adriamycin for line KB-Al) at 9 concentrations (2 by 2 series dilutions). The compounds tested for their capacity to reverse MDR are added at the same time as the cytotoxic agent.
The cells are then incubated for 4 days. […] The results are expressed as a reversion factor (RF): PG,29 [formula]

Row | Compound | VAR-MEAN (increase in ADR fluorescence), line DC-3F/AD (line DC-3F/AD [1]; 1.0 μM compound) | VAR-MEAN (increase in ADR fluorescence), line DC-3F/AD (line DC-3F/AD [1]; 5.0 μM compound) | VAR-MEAN (increase in ADR fluorescence), line DC-3F/AD (line DC-3F/AD [1]; 10 μM compound) | VAR-MEAN (increase in ADR fluorescence), line DC-3F/AD (line DC-3F/AD [1]; […] compound) | Reversion factors (cytotoxicity) with the line DC-3F/AD (line DC-3F/AD [2]; 1 μM compound) | Reversion factors (cytotoxicity) with the line DC-3F/AD (line DC-3F/AD [2]; 5 μM compound) | Reversion factors (cytotoxicity) with the line DC-3F/AD (line DC-3F/AD [2]; 0.5 μM compound)
1 | C=CCNc1nc(NCC=C)nc(N2CCC(NCC3c4ccccc4CSc4ccccc43)CC2)n1 (racemic) [Example 26, 2,4-diallylamino-6-{4-[((R,S)-6,11-dihydro-dibenzo[b,e]thiepin-11-yl)methylamino]piperidin-1-yl}-1,3,5-triazine] | 4.3 | 33.5 | 32.6 | 17.8 | 6.8 | 866.6 | –
2 | C=CCNc1nc(NCC=C)nc(N2CCC(NCC3c4ccccc4NC(=O)c4ccccc43)CC2)n1 (racemic) [Example 27, 2,4-diallylamino-6-{4-[((R,S)-6,11-dihydro-dibenzo[b,e]-6-oxoazepin-11-yl)methylamino]piperidin-1-yl}-1,3,5-triazine] | 0.0 | 2.2 | – | 0.0 | 1.1 | 2.1 | –
3 | C=CCNc1nc(NCC=C)nc(N2CCC(NCC3c4ccccc4CS(=O)(=O)c4ccccc43)CC2)n1 (racemic) [Example 32, 2,4-diallylamino-6-{4-[((R,S)-6,11-dihydro-5,5-dioxo-dibenzo[b,e]thiepin-11-yl)methylamino]piperidin-1-yl}-1,3,5-triazine] | 0.0 | 12.4 | – | 1.9 | 1.3 | 27.4 | –
4 | C=CCNc1nc(NCC=C)nc(N2CCN(C3c4ccccc4CCc4ccccc43)CC2)n1 [Example 1, 2,4-Diallylamino-6-{4-(10,11-dihydro-5H-dibenzo[a,d]cyclohepten-5-yl)piperazin-1-yl}-1,3,5-triazine] | 8.4 | 16.0 | 19.3 | 4.9 | 27 | 309 | –
5 | C=CCNc1nc(NCC=C)nc(NCCN2CCN(C3c4ccccc4CCc4ccccc43)CC2)n1 [Example 2, 2,4-Diallylamino-6-{2-[4-(10,11-dihydro-5H-dibenzo[a,d]cyclohepten-5-yl)piperazin-1-yl]ethylamino}-1,3,5-triazine] | 10.1 | 10.2 | 10.5 | 14.7 | 1 | – | 0.8
6 | C=CCNc1nc(NCC=C)nc(N2CCC(NC3c4ccccc4CCc4ccccc43)CC2)n1 [Example 4, 2,4-diallylamino-6-[4-(10,11-dihydro-5H-dibenzo[a,d]cyclohepten-5-ylamino)piperidin-1-yl]-1,3,5-triazine] | 16.2 | 25.5 | 28.1 | 21.8 | 66 | 755 | 21
7 | C=CCNc1nc(NCC=C)nc(NCC(O)CN2CCN(C3c4ccccc4CCc4ccccc43)CC2)n1 (stereo not shown) [Example 6, 2,4-diallylamino-6-{3-[4-(10,11-dihydro-5H-dibenzo[a,d]cyclohepten-5-yl)piperazin-1-yl]-2-hydroxypropylamino}-1,3,5-triazine] | 11.0 | 24.3 | 27.6 | 14.4 | 1.1 | – | 0.9
8 | C=CCNc1nc(NCC=C)nc(NCC2CCN(C3c4ccccc4CCc4ccccc43)CC2)n1 [Example 7, 2,4-diallylamino-6-{[1-(10,11-dihydro-5H-dibenzo[a,d]cyclohepten-5-yl)piperidin-4-yl]methylamino}-1,3,5-triazine] | 3.4 | 10.1 | 17.4 | 3.9 | 1.1 | 9.7 | 1.2
9 | C=CCNc1nc(NCC=C)nc(NCC2CCN(CC3c4ccccc4CCc4ccccc43)CC2)n1 [Example 8, 2,4-diallylamino-6-{[1-[(10,11-dibenzo[a,d]cyclohepten-5-yl)methyl]piperidin-4-yl]methylamino}-1,3,5-triazine] | 1.3 | 19.3 | 21.0 | 11.4 | 1.6 | 353 | 0.8
10 | C=CCNc1nc(NCC=C)nc(N2CCC(NCC3c4ccccc4Oc4ccccc43)CC2)n1 [Example 9, 2,4-diallylamino-6-[4-(xanthen-9-ylmethylamino)-piperidin-1-yl]-1,3,5-triazine] | 13.4 | 19.4 | 25.7 | 18.1 | 39 | 844 | 4.8
11 | C=CCNc1nc(NCC=C)nc(N2CCC(NCC34CCC(c5ccccc53)c3ccccc34)CC2)n1 [Example 10, 2,4-diallylamino-6-{4-[(9,10-dihydro-9,10-ethanoanthracen-9-yl)methylamino]piperidin-1-yl}-1,3,5-triazine] | 12.3 | 20.2 | 30.7 | 13.5 | 1.9 | 96 | 1
12 | C=CCNc1nc(NCC=C)nc(NCCN2CCC(NC3c4ccccc4CCc4ccccc43)CC2)n1 [Example 12, 2,4-diallylamino-6-{2-[4-(10,11-dihydro-5H-dibenzo[a,d]cyclohepten-5-ylamino)piperidin-1-yl]ethylamino}-1,3,5-triazine] | 5.4 | 10.4 | 18.3 | 10.3 | 0.9 | 64 | 0.9
